Legend:
Anas platyrhynchos = conditions: oral, mortality
Apis mellifera = conditions: acute; duration: 48 hours; oral; unspecified; mortality
Canidae = conditions: subchronic; duration: 90 days; oral; Dog Other; organ weight
Colinus virginianus = conditions: for LD50: acute, oral, mortality
Daphnia magna = conditions: chronic/long-term; duration: 21 days
Mus musculus = conditions: acute; oral; mortality
Typhlodromus pyri = experiment: LR50; higher = less toxic; conditions: not reported; mortality

## CC(C)N1C(=O)N(c2ccccc2)CSC1=NC(C)(C)C [Buprofezin]
Anas platyrhynchos; acute, unspecified
  LD50: > 2000 mg/kg-day
Anas platyrhynchos; short-term, feed
  LC50: > 1310 mg/kg-day
Apis mellifera
  LD50: > 164 µg/piece
Canidae
  NOAEL: 10 mg/kg-day
Colinus virginianus; diet
  LD50: > 1310 mg/kg-day
Colinus virginianus
  LD50: > 2000 mg/kg-day
Colinus virginianus; developmental, development
  NOEC: 48 mg/kg-day
Colinus virginianus; reproduction developmental, reproduction
  NOEC: 198 mg/kg-day
Daphnia magna
  NOEC: 0.08 mg/L
Mus musculus
  LD50: > 2000 mg/kg-day
Oncorhynchus mykiss; acute, duration: 96 hours, mortality
  LC50: > 0.33 µg/mL
Oncorhynchus mykiss; chronic/long-term, growth
  NOEC: 0.052 mg/L
Rattus norvegicus; acute, oral, mortality
  LD50: > 2000 mg/kg-day
Rattus norvegicus; chronic, duration: 2 years, oral, diet, M/F, organ weight
  NOAEL: 0.9 mg/kg-day
Rattus norvegicus; developmental, development
  NOAEL: 50 mg/kg-day
Rattus norvegicus; reproduction developmental, body weight
  NOAEL: 66 mg/kg-day
Tagia sp.; acute, duration: 14 days, mortality
  LC50: > 1000 mg/kg
Tagia sp.; chronic/long-term, duration: 56 days, reproduction
  NOEC: 500 mg/kg
Typhlodromus pyri
  LR50: > 3000 g/ha
